# Laboratory results from ChEMBL document CHEMBL1139332, “Selective activity against Mycobacteriumtuberculosis of new quinoxaline 1,4-di-N-oxides” (Bioorg Med Chem, 2009).
# Test system: Mycobacterium tuberculosis
# Assay: Antimicrobial activity against Mycobacterium tuberculosis H37Rv by microplate alamar blue assay
# Format: functional
# Settings: not given
row,Structure (SMILES),MIC [µg/mL]
1,COc1ccc(-c2c(C#N)[n+]([O-])c3cc(C)c(C)cc3[n+]2[O-])cc1,< 0.2
2,COc1ccc(-c2c(C#N)[n+]([O-])c3cc(C)ccc3[n+]2[O-])cc1,< 0.2
3,Cc1cc2c(cc1C)[n+]([O-])c(-c1ccccc1)c(C#N)[n+]2[O-],0.39
4,N#Cc1c(-c2ccccc2)[n+]([O-])c2cc(Cl)c(Cl)cc2[n+]1[O-],0.2
5,CCOC(=O)c1c(C)[n+]([O-])c2ccc(Cl)cc2[n+]1[O-],0.2
6,N#Cc1c(-c2ccc(OC(F)(F)F)cc2)[n+]([O-])c2ccc(C(F)(F)F)cc2[n+]1[O-],< 0.2
7,CCOC(=O)c1c(-c2ccccc2)[n+]([O-])c2cc(Cl)c(Cl)cc2[n+]1[O-],< 0.2
8,N#Cc1c(-c2ccccc2)[n+]([O-])c2ccccc2[n+]1[O-],0.2
9,Cc1ccc2c(c1)[n+]([O-])c(C#N)c(-c1ccccc1)[n+]2[O-],0.39
10,COc1ccc2c(c1)[n+]([O-])c(C#N)c(-c1ccccc1)[n+]2[O-],3.13
11,N#Cc1c(-c2ccc(Cl)cc2)[n+]([O-])c2cc(Cl)c(Cl)cc2[n+]1[O-],< 0.2
12,Cc1cc2c(cc1C)[n+]([O-])c(N1CCN(c3ccc([N+](=O)[O-])cc3)CC1)c(C#N)[n+]2[O-],< 0.2
13,Cc1c(C(=O)OCc2ccccc2)[n+]([O-])c2cc(Cl)ccc2[n+]1[O-],0.1
14,COC(=O)c1ccc(-c2c(C#N)[n+]([O-])c3cc(Cl)c(Cl)cc3[n+]2[O-])cc1,> 6.25
15,CC(=O)c1c(C)[n+]([O-])c2ccc(Cl)cc2[n+]1[O-],0.78
16,N#Cc1c(-c2ccc(F)cc2)[n+]([O-])c2ccc(Cl)cc2[n+]1[O-],< 0.2
17,Cc1ccc2c(c1)[n+]([O-])c(C#N)c(-c1ccc(F)cc1)[n+]2[O-],< 0.2
18,COc1ccc(-c2c(C#N)[n+]([O-])c3ccccc3[n+]2[O-])cc1,< 0.2
19,N#Cc1c(-c2ccc(OC(F)(F)F)cc2)[n+]([O-])c2ccccc2[n+]1[O-],< 0.2

row,Structure (SMILES),MIC [µg/mL]
1,COc1ccc(-c2c(C#N)[n+]([O-])c3cc(OC)ccc3[n+]2[O-])cc1,< 0.2
2,COc1ccc(-c2c(C#N)[n+]([O-])c3cc(Cl)c(Cl)cc3[n+]2[O-])cc1,< 0.2
3,N#Cc1c(-c2ccc(F)cc2)[n+]([O-])c2ccccc2[n+]1[O-],< 0.2
4,N#Cc1c(-c2ccccc2)[n+]([O-])c2ccc(F)cc2[n+]1[O-],< 0.2
5,N#Cc1c(-c2ccc(F)cc2)[n+]([O-])c2ccc(F)cc2[n+]1[O-],< 0.2
6,N#Cc1c(-c2ccc(OC(F)(F)F)cc2)[n+]([O-])c2ccc(Cl)cc2[n+]1[O-],< 0.2
7,Cc1ccc2c(c1)[n+]([O-])c(C#N)c(-c1ccc(OC(F)(F)F)cc1)[n+]2[O-],< 0.2
8,COc1ccc2c(c1)[n+]([O-])c(C#N)c(-c1ccc(OC(F)(F)F)cc1)[n+]2[O-],< 0.2
9,Cc1cc2c(cc1C)[n+]([O-])c(-c1ccc(OC(F)(F)F)cc1)c(C#N)[n+]2[O-],0.42
10,N#Cc1c(-c2ccccc2)[n+]([O-])c2ccc(C(F)(F)F)cc2[n+]1[O-],< 0.2
11,N#Cc1c(-c2ccc(F)cc2)[n+]([O-])c2ccc(C(F)(F)F)cc2[n+]1[O-],< 0.2
12,N#Cc1c(-c2ccc(Cl)cc2)[n+]([O-])c2ccc(Cl)cc2[n+]1[O-],0.39
13,N#Cc1c(-c2ccccc2)[n+]([O-])c2ccc(Cl)cc2[n+]1[O-],0.39
14,COc1ccc2c(c1)[n+]([O-])c(C#N)c(-c1ccc(F)cc1)[n+]2[O-],< 0.2
15,Cc1ccc(-c2c(C#N)[n+]([O-])c3cc(C)ccc3[n+]2[O-])cc1,0.78
16,COc1ccc(-c2c(C#N)[n+]([O-])c3cc(Cl)ccc3[n+]2[O-])cc1,< 0.2
17,N#Cc1c(-c2ccc(OC(F)(F)F)cc2)[n+]([O-])c2ccc(F)cc2[n+]1[O-],< 0.2
18,N#Cc1c(-c2ccc(OC(F)(F)F)cc2)[n+]([O-])c2cc(Cl)c(Cl)cc2[n+]1[O-],< 0.2

# Test system: Mycobacterium tuberculosis
# Assay: Antimicrobial activity against Mycobacterium tuberculosis H37Rv at 6.25 ug/ml by microplate alamar blue assay
# Format: functional
# Settings: not given
row,Structure (SMILES),inhibition at 6.25 µg/mL [%]
1,COc1ccc(-c2c(C#N)[n+]([O-])c3cc(C)c(C)cc3[n+]2[O-])cc1,90
2,COc1ccc(-c2c(C#N)[n+]([O-])c3cc(C)ccc3[n+]2[O-])cc1,90
3,Cc1cc2c(cc1C)[n+]([O-])c(-c1ccccc1)c(C#N)[n+]2[O-],90
4,N#Cc1c(-c2ccccc2)[n+]([O-])c2cc(Cl)c(Cl)cc2[n+]1[O-],90
5,N#Cc1c(-c2ccc(OC(F)(F)F)cc2)[n+]([O-])c2ccc(C(F)(F)F)cc2[n+]1[O-],90
6,CCOC(=O)c1c(-c2ccccc2)[n+]([O-])c2cc(Cl)c(Cl)cc2[n+]1[O-],90
7,N#Cc1c(-c2ccccc2)[n+]([O-])c2ccccc2[n+]1[O-],90
8,Cc1ccc2c(c1)[n+]([O-])c(C#N)c(-c1ccccc1)[n+]2[O-],90
9,COc1ccc2c(c1)[n+]([O-])c(C#N)c(-c1ccccc1)[n+]2[O-],90
10,N#Cc1c(-c2ccc(Cl)cc2)[n+]([O-])c2cc(Cl)c(Cl)cc2[n+]1[O-],90
11,N#Cc1c(-c2ccc(F)cc2)[n+]([O-])c2ccc(Cl)cc2[n+]1[O-],90
12,Cc1ccc2c(c1)[n+]([O-])c(C#N)c(-c1ccc(F)cc1)[n+]2[O-],90
13,COc1ccc(-c2c(C#N)[n+]([O-])c3ccccc3[n+]2[O-])cc1,90
14,N#Cc1c(-c2ccc(OC(F)(F)F)cc2)[n+]([O-])c2ccccc2[n+]1[O-],90
15,COc1ccc(-c2c(C#N)[n+]([O-])c3cc(OC)ccc3[n+]2[O-])cc1,90
16,COc1ccc(-c2c(C#N)[n+]([O-])c3cc(Cl)c(Cl)cc3[n+]2[O-])cc1,90

row,Structure (SMILES),inhibition at 6.25 µg/mL [%]
1,N#Cc1c(-c2ccc(F)cc2)[n+]([O-])c2ccccc2[n+]1[O-],90
2,N#Cc1c(-c2ccccc2)[n+]([O-])c2ccc(F)cc2[n+]1[O-],90
3,N#Cc1c(-c2ccc(F)cc2)[n+]([O-])c2ccc(F)cc2[n+]1[O-],90
4,N#Cc1c(-c2ccc(OC(F)(F)F)cc2)[n+]([O-])c2ccc(Cl)cc2[n+]1[O-],90
5,Cc1ccc2c(c1)[n+]([O-])c(C#N)c(-c1ccc(OC(F)(F)F)cc1)[n+]2[O-],90
6,COc1ccc2c(c1)[n+]([O-])c(C#N)c(-c1ccc(OC(F)(F)F)cc1)[n+]2[O-],90
7,Cc1cc2c(cc1C)[n+]([O-])c(-c1ccc(OC(F)(F)F)cc1)c(C#N)[n+]2[O-],90
8,N#Cc1c(-c2ccccc2)[n+]([O-])c2ccc(C(F)(F)F)cc2[n+]1[O-],90
9,N#Cc1c(-c2ccc(F)cc2)[n+]([O-])c2ccc(C(F)(F)F)cc2[n+]1[O-],90
10,N#Cc1c(-c2ccc(Cl)cc2)[n+]([O-])c2ccc(Cl)cc2[n+]1[O-],90
11,N#Cc1c(-c2ccccc2)[n+]([O-])c2ccc(Cl)cc2[n+]1[O-],90
12,COc1ccc2c(c1)[n+]([O-])c(C#N)c(-c1ccc(F)cc1)[n+]2[O-],90
13,Cc1ccc(-c2c(C#N)[n+]([O-])c3cc(C)ccc3[n+]2[O-])cc1,90
14,COc1ccc(-c2c(C#N)[n+]([O-])c3cc(Cl)ccc3[n+]2[O-])cc1,90
15,N#Cc1c(-c2ccc(OC(F)(F)F)cc2)[n+]([O-])c2ccc(F)cc2[n+]1[O-],90
16,N#Cc1c(-c2ccc(OC(F)(F)F)cc2)[n+]([O-])c2cc(Cl)c(Cl)cc2[n+]1[O-],90

# Test system: Vero
# Assay: Cytotoxicity against african green monkey Vero cells after 72 hrs by MTT assay
# Format: cell-based, Chlorocebus sabaeus
# Settings: Chlorocebus sabaeus, Vero, 72 h; read-out: IC50
row,Structure (SMILES),IC50 [µg/mL]
1,Cc1cc2c(cc1C)[n+]([O-])c(-c1ccccc1)c(C#N)[n+]2[O-],3.9
2,N#Cc1c(-c2ccccc2)[n+]([O-])c2ccccc2[n+]1[O-],1.9
3,Cc1ccc2c(c1)[n+]([O-])c(C#N)c(-c1ccccc1)[n+]2[O-],3.6
4,N#Cc1c(-c2ccc(F)cc2)[n+]([O-])c2ccc(Cl)cc2[n+]1[O-],51.7
5,Cc1ccc2c(c1)[n+]([O-])c(C#N)c(-c1ccc(F)cc1)[n+]2[O-],> 100
6,N#Cc1c(-c2ccc(F)cc2)[n+]([O-])c2ccccc2[n+]1[O-],3.83
7,N#Cc1c(-c2ccccc2)[n+]([O-])c2ccc(F)cc2[n+]1[O-],17.6
8,N#Cc1c(-c2ccc(F)cc2)[n+]([O-])c2ccc(F)cc2[n+]1[O-],24.9
9,N#Cc1c(-c2ccccc2)[n+]([O-])c2ccc(C(F)(F)F)cc2[n+]1[O-],3.78
10,N#Cc1c(-c2ccc(F)cc2)[n+]([O-])c2ccc(C(F)(F)F)cc2[n+]1[O-],0.99
11,N#Cc1c(-c2ccccc2)[n+]([O-])c2ccc(Cl)cc2[n+]1[O-],0.36
12,COc1ccc2c(c1)[n+]([O-])c(C#N)c(-c1ccc(F)cc1)[n+]2[O-],95.1

# Same assay, conditions: vero
row,Structure (SMILES),IC50
1,N#Cc1c(-c2ccccc2)[n+]([O-])c2cc(Cl)c(Cl)cc2[n+]1[O-],ND(Insoluble)
2,COc1ccc2c(c1)[n+]([O-])c(C#N)c(-c1ccccc1)[n+]2[O-],ND(Insoluble)
3,N#Cc1c(-c2ccc(Cl)cc2)[n+]([O-])c2cc(Cl)c(Cl)cc2[n+]1[O-],ND(Insoluble)
4,N#Cc1c(-c2ccc(Cl)cc2)[n+]([O-])c2ccc(Cl)cc2[n+]1[O-],ND(Insoluble)
5,Cc1ccc(-c2c(C#N)[n+]([O-])c3cc(C)ccc3[n+]2[O-])cc1,ND(Insoluble)

# Test system: not listed separately
# Assay: Selectivity index, ratio of IC50 for african green monkey Vero cells to MIC for Mycobacterium tuberculosis H37Rv
# Format: functional
# Settings: not given
row,Structure (SMILES),Ratio
1,Cc1cc2c(cc1C)[n+]([O-])c(-c1ccccc1)c(C#N)[n+]2[O-],10
2,CCOC(=O)c1c(C)[n+]([O-])c2ccc(Cl)cc2[n+]1[O-],>50
3,N#Cc1c(-c2ccccc2)[n+]([O-])c2ccccc2[n+]1[O-],9.5
4,Cc1ccc2c(c1)[n+]([O-])c(C#N)c(-c1ccccc1)[n+]2[O-],9.2
5,Cc1cc2c(cc1C)[n+]([O-])c(N1CCN(c3ccc([N+](=O)[O-])cc3)CC1)c(C#N)[n+]2[O-],>125
6,Cc1c(C(=O)OCc2ccccc2)[n+]([O-])c2cc(Cl)ccc2[n+]1[O-],470
7,CC(=O)c1c(C)[n+]([O-])c2ccc(Cl)cc2[n+]1[O-],20
8,N#Cc1c(-c2ccc(F)cc2)[n+]([O-])c2ccc(Cl)cc2[n+]1[O-],>258.67
9,Cc1ccc2c(c1)[n+]([O-])c(C#N)c(-c1ccc(F)cc1)[n+]2[O-],>500
10,N#Cc1c(-c2ccc(F)cc2)[n+]([O-])c2ccccc2[n+]1[O-],>19.16
11,N#Cc1c(-c2ccccc2)[n+]([O-])c2ccc(F)cc2[n+]1[O-],>88.03
12,N#Cc1c(-c2ccc(F)cc2)[n+]([O-])c2ccc(F)cc2[n+]1[O-],>124.67
13,N#Cc1c(-c2ccccc2)[n+]([O-])c2ccc(C(F)(F)F)cc2[n+]1[O-],>18.89
14,N#Cc1c(-c2ccc(F)cc2)[n+]([O-])c2ccc(C(F)(F)F)cc2[n+]1[O-],>4.94
15,N#Cc1c(-c2ccccc2)[n+]([O-])c2ccc(Cl)cc2[n+]1[O-],0.92
16,COc1ccc2c(c1)[n+]([O-])c(C#N)c(-c1ccc(F)cc1)[n+]2[O-],>475.55
